Type in all cases: in vitro ADME
In data set [1] the test system is plasma protein of SD rats. Nature of the data set: Protein binding rate by equilibrium dialysis, SD rats plasma. To be noted: for Protein unbound rate: SD rats plasma, 2 μM, dialysis 4 hours. The procedure:
Purpose of the assay: Protein binding rate of the assay compounds in plasma of CD-1 mice, SD rats, beagle dogs, cynomolgus monkeys and human was determined by equilibrium dialysis.
Procedure of the assay: Plasma samples with a compound concentration of 2 μM were prepared using plasma of the above five species, placed in a 96-well equilibrium dialysis device, and dialyzed with phosphate buffer solution at 37±1° C. for 4 hours. Warfarin was used as the control compound in this assay. The concentrations of the assay compounds in plasma and dialysis buffer were determined by LC-MS/MS method.
(Equilibrium dialysis compares concentrations on both sides of a semipermeable membrane.)

Data set [2] is described as follows: Metabolic stability in hepatocytes, beagle dogs. On the procedure: (§1) Purpose of the assay: Metabolic stabilities of assay compounds in hepatocytes of CD-1 mice, SD rats, beagle dogs, cynomolgus monkeys, and human were assayed, respectively.
(§2) Procedure of the assay: Several 96-well sample precipitation plates were prepared and named T0, T15, T30, T60, T90, T120, TO-MC, T120-MC and blank substrates, respectively. The recovery medium and incubation medium were taken out in advance and placed in a 37° C. water bath for pre-heating. Cryopreserved hepatocytes were removed from the liquid nitrogen tank and immediately immersed in a 37° C. water bath (approximately 90 seconds). After the cryopreserved hepatocytes had thawed and loosened, they were poured into a centrifuge tube containing 40 mL of recovery medium, and the tube was gently inverted to allow the cells to be resuspended in the recovery medium. The cells were centrifuged at 100×g at room temperature for 5 min, and the supernatant was removed. The hepatocytes were resuspended in an appropriate volume of incubation medium, and the cell viability was calculated by Trypan Blue staining method. 198 μL of hepatocyte suspension (0.51×10^6 cells/mL) was added to the preheated incubation plate. For the culture medium control group, 198 μL of hepatocyte-free incubation medium was added to T0-MC and T120-MC incubation plate. All incubation plates were pre-incubated in a 37° C. incubator for 10 minutes. Then 2 μL of working solutions of the assay sample and the control compound were added, respectively, and the mixture was mixed well. The incubation plate was immediately put into the shaker in the incubator, and the reaction was initiated while starting the timer. For each time point of each compound, 2 duplicate samples were prepared. The incubation conditions were 37° C., saturated humidity, and 5% CO2. In the assay system, the final concentration of the assay sample was 1 μM, the final concentration of the control sample was 3 μM, the final concentration of hepatocytes was 0.5×10^6 cells/mL, and the final concentration of the total organic solvent was 0.96%, of which the final concentration of DMSO was 0.1%. At the end of the incubation for the corresponding time point, the incubation plate was taken out, and 25 μL of a mixture of compound and control compound with cells was added to the sample plate containing 125 μL of stop solution (200 ng/mL tolbutamide and labetalol in acetonitrile). For the Blank sample plate, 25 μL of hepatocyte-free incubation medium was added directly. After sealing, all sample plates were shaken on a shaker at 600 rpm for 10 minutes, and then centrifuged at 3220×g for 20 minutes. Supernatants of the assay sample and the control sample were diluted with ultrapure water at a ratio of 1:3. All samples were mixed well and analyzed by LC/MS/MS.

A short description of data set [3]: Metabolic stability in hepatocytes, CD-1 mice. To be noted: CD-1 mice hepatocytes. On the procedure: as §1, §2
Data set [4] in a line: Stability assay in whole blood, beagle dogs. To be noted: 5 μM, 37° C. The procedure:
Purpose of the assay: Stabilities of the assay compounds in whole blood of CD-1 mice, SD rats, Beagle dogs and cynomolgus monkeys were assayed, respectively.
Procedure of the assay: On the day of the assay or the day before the assay, fresh whole blood from CD-1 mice, SD rats, beagle dogs, and cynomolgus monkeys was collected using anticoagulant EDTA-K2. Prior to the start of the assay, the whole blood was mixed with PBS in 1:1 (v:v) and the mixture was preheated in a 37° C. water bath for 10-20 minutes. […] […] All samples were incubated in a 37° C. water bath. The final incubation concentration of the compound was 5 μM and the final incubation concentration of the control compound was 2 μM. At the end of incubation for each time point, the corresponding incubation plate was removed and 100 μL of ultrapure water was immediately added to the corresponding sample wells, and mixed well. 800 μL of a solution of 200 ng/mL tolbutamide and labetalol in acetonitrile was added to precipitate the protein. The sample plates were sealed and shaken well, and then centrifuged at 3220×g for 20 min. 150 μL of supernatant was taken out and analyzed by LC/MS/MS.

Data set [5] can be described thus: In vitro stability in liver microsomes, SD rats. To be noted: 0.5 mg/mL. On the procedure: Purpose of the assay: Metabolic stabilities of the assay compounds in liver microsomes of CD-1 mice, SD rats, beagle dogs, cynomolgus monkeys, and human were assayed, respectively.
Procedure of the assay: Two 96-well incubation plates were prepared and named T60 incubation plate and NCF60 incubation plate, respectively. 445 μL of microsomal working solutions (liver microsomal protein concentration of 0.56 mg/mL) were added to the T60 incubation plate and the NCF60 incubation plate, respectively, and then the above incubation plates were pre-incubated in a 37° C. water bath for about 10 minutes.
After the pre-incubation, 5 μL of working solutions of the assay sample or the control compound were added to the T60 incubation plate and the NCF60 incubation plate, respectively, and the mixture was mixed well. 50 μL of potassium phosphate buffer was added to each well of the NCF60 incubation plate to initiate the reaction. 180 μL of stop solution (200 ng/mL tolbutamide and 200 ng/mL labetalol in acetonitrile) and 6 uL of NADPH regeneration system working solution were added to the T0 stop plate, and 54 μL of sample was transferred from T60 incubation plate to T0 stop plate (generation of TO sample). The reaction was initiated by adding 44 μL of NADPH regeneration system working solution to each well of the T60 incubation plate. Only 54 μL of microsome working solution, 6 uL of NADPH regeneration system working solution and 180 μL of stop solution were added to the Blank plate. Therefore, in samples of the assay compound or the control compound, the final reaction concentration of compound, testosterone, diclofenac and propafenone was 1 μM, the concentration of liver microsomes was 0.5 mg/mL, and the final reaction concentrations of DMSO and acetonitrile in the reaction system were 0.01% (v/v) and 0.99% (v/v), respectively.
After an appropriate time (e.g., 5, 15, 30, 45 and 60 minutes) of incubation, 180 μL of stop solutions (200 ng/mL tolbutamide and 200 ng/mL labetalol in acetonitrile) were added to the sample wells of each stop plate, respectively. 60 μL of sample was removed from the T60 incubation plate to stop the reaction. All sample plates were shaken well and then centrifuged at 3220×g for 20 minutes. Then 80 μL of supernatant was taken out from each well, and diluted in 240 μL of pure water for liquid chromatography-tandem mass spectrometry analysis. All samples were injected and analyzed by liquid chromatography-tandem mass spectrometry.

Where only a bound is given, the exact number is not on record here.

The compound `C=C(F)C(=O)N1CCN(c2nc(OCC3CCCN3C)nc3c2COC(c2c(F)c(N)cc(C)c2C(F)(F)F)C3)CC1CC#N.Cl` (single isomer, unassigned) [Compound 8B hydrochloride] displayed a Protein unbound rate in data set [1] of 9.8. Besides, the “Plasma protein unbound rate PPB (Unbound %)” value in data set [1] (SD rats, as listed in PK Table 8) is reported as 9.8%. Also, in data set [2] (1 μM), the “CLint(hep)” value is on record as less than 6.4 μL/min/10^6, the “CLint(liver)” value is listed as less than 44 mL/min/kg and the T1/2 is recorded as greater than 216.8 min. In data set [3] (1 μM), the “CLint(hep)” value turned out to be 76.3 μL/min/10^6, the “CLint(liver)” value is 906.0 mL/min/kg and the T1/2 came to 18.2 min. Further, in data set [4], the “Detection of assay compound content within 120 min” value is 96%. Further, in data set [5] (1 μM), the “CLint(liver)” value is listed as less than 17.3 mL/min/kg, the CLint(mic) was less than 9.6 µL/min/mg and the T1/2 is on record as greater than 145 min.
As to `C=C(F)C(=O)N1CCN(c2nc(OC[C@@]34CCCN3C[C@H](F)C4)nc3c2COC(c2c(F)c(N)cc(C)c2C(F)(F)F)C3)C[C@@H]1CC#N` (some centres unmarked) [Compound 17], the Protein unbound rate in data set [1] is 4.8. Besides, the “CLint(hep)” value was found to be 7.6 μL/min/10^6 in data set [2] (1 μM) and 146.3 μL/min/10^6 in data set [3] (1 μM). Moreover, the half-life – broadly, how long it takes for the measured level to halve – at 1 μM in data set [2] (dog, cryopreserved hepatocytes) turned out to be 182 min; in data set [3] (mouse, cryopreserved hepatocytes) it was 9.5 min; in data set [5] (rat), 23 min. Further, the CLint scaled at 1 μM was 52.3 mL/min/kg in data set [2] (dog, cryopreserved hepatocytes, read-out: CLint(liver)); 1740 mL/min/kg in data set [3] (mouse, cryopreserved hepatocytes, read-out: CLint(liver)); 108 mL/min/kg in data set [5] (rat). In addition, in data set [4], the “Detection of assay compound content within 120 min” value was 102%. In data set [5] (1 μM), this compound returned a CLint(mic) of 60.2 µL/min/mg.

The values above are taken from patent US12012404B2, “Pyrimidoheterocyclic compounds and application thereof” (D3 BIO (WUXI) CO., LTD., priority 2020, dated 2024).
